Test results reported in ChEMBL document CHEMBL1201862, “PubChem BioAssay data set” (2004).
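Five compound concentrations were applied to cells in 96-well plates for 48 hours; endpoints were derived by simple linear interpolation of the resulting dose-response curve. GI50 is the concentration that inhibits growth by half.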 Calls of active or inactive are those of the source. No stated cut-off is given here; in the data, active = GI50 up to about 1.1 µM and inactive = higher. Non-standard residues stand in square brackets, D forms with d. Residues, ends and D or L forms follow the SMILES beside them. *: point of attachment. NMeF = CN[CH](Cc1ccccc1)C(=O)O; NMeV = CN[CH](C(=O)O)C(C)C; Boc = CC(C)(C)OC(=O)*

Experiments:
Assay in all cases: DTP human tumour cell line panel, 48 h
[1] = system: A498
[2] = system: HCT-116
[3] = system: HCT-15
[4] = system: IGROV-1
[5] = system: M14
[6] = system: MOLT-4
[7] = system: NCI-H460
[8] = system: OVCAR-8
[9] = system: RXF 393
[10] = system: SF-295
[11] = system: SK-MEL-2
[12] = system: SNB-19
[13] = system: TK-10
[14] = system: UO-31
[15] = system: HCC 2998
[16] = system: EKVX
[17] = system: RPMI-8226

SMILES | GI50 [1] | GI50 [2] | GI50 [3] [µM] | GI50 [4] | GI50 [5] | GI50 [6] | GI50 [7] | GI50 [8] | GI50 [9] | GI50 [10] | GI50 [11] | GI50 [12] | GI50 [13] | GI50 [14] | GI50 [15] | GI50 [16] | GI50 [17]
COc1ccc(C2C(Cl)C(=O)N2NC(=O)c2ccccc2O)cc1OC (stereo unspecified) | > 100 µM (inactive) | > 100 µM (inactive) | 68.9 | > 100 µM (inactive) | > 100 µM (inactive) | 42.5 µM (inactive) | 49.5 µM (inactive) | 93.1 µM (inactive) | > 100 µM (inactive) | 51.8 µM (inactive) | 92 µM (inactive) | > 100 µM (inactive) | > 100 µM (inactive) | 53.2 µM (inactive) | – | – | –
[N-]=[N+]=Nc1c(Br)c(=O)[nH]c(=O)n1COCCO | – | > 100 µM (inactive) | – | > 100 µM (inactive) | > 100 µM (inactive) | > 100 µM (inactive) | > 100 µM (inactive) | > 100 µM (inactive) | > 100 µM (inactive) | > 100 µM (inactive) | – | > 100 µM (inactive) | > 100 µM (inactive) | > 100 µM (inactive) | > 100 µM (inactive) | – | –
O=C1c2ccccc2C(=O)c2[nH]c(Cc3ccccc3F)nc21 | – | 41.4 µM (inactive) | 45.2 | – | 84.1 µM (inactive) | 89.7 µM (inactive) | 33.9 µM (inactive) | 48.3 µM (inactive) | 20.2 µM (inactive) | 59.2 µM (inactive) | 60.1 µM (inactive) | 38.5 µM (inactive) | 29.3 µM (inactive) | 52.5 µM (inactive) | > 100 µM (inactive) | > 100 µM (inactive) | 57.4 µM (inactive)
COc1cc2c3c(c1OC)C1(C=CC(=O)C=C1)CC3N(C(=O)OC(C)(C)C(Cl)(Cl)Cl)CC2 (stereo unspecified) | 16.7 µM (inactive) | 6.25 µM (inactive) | 7.52 | 16.6 µM (inactive) | 14.5 µM (inactive) | 2.97 µM (inactive) | 14.5 µM (inactive) | 8.85 µM (inactive) | 4.16 µM (inactive) | 13.4 µM (inactive) | 11 µM (inactive) | 14.9 µM (inactive) | 43.2 µM (inactive) | 14.5 µM (inactive) | – | 16.8 µM (inactive) | 2.23 µM (inactive)
O=C(CC(=O)N1N=C(c2ccccc2)C(/N=N/c2ccc(Cl)cc2)C1=O)Nc1ccccc1Cl (stereo unspecified) | > 10 µM (inactive) | 23.6 µM (inactive) | 51.2 | 36.4 µM (inactive) | 28.1 µM (inactive) | 33 µM (inactive) | 42.1 µM (inactive) | – | – | – | 32.4 µM (inactive) | 21.2 µM (inactive) | 16.6 µM (inactive) | 22 µM (inactive) | 68.7 µM (inactive) | 27.6 µM (inactive) | 27.6 µM (inactive)
CC(C)C(NC(=O)OC(C)(C)C)C(=O)N(C)C(Cc1ccccc1)C(=O)N(C)C(C(=O)N(C)C(C(=O)O)C(C)C)C(C)C (stereo unspecified) (Boc-V[NMeF][NMeV][NMeV]-OH; configuration not given here) | – | > 100 µM (inactive) | > 100 | > 100 µM (inactive) | > 100 µM (inactive) | > 100 µM (inactive) | > 100 µM (inactive) | > 100 µM (inactive) | > 100 µM (inactive) | > 100 µM (inactive) | – | > 100 µM (inactive) | > 100 µM (inactive) | > 100 µM (inactive) | > 100 µM (inactive) | > 100 µM (inactive) | > 100 µM (inactive)
O=C(O)C(CS)NCc1c2ccccc2nc2ccccc12 (stereo unspecified) | – | 16.7 µM (inactive) | 31.6 | 27 µM (inactive) | – | 15.3 µM (inactive) | 42.5 µM (inactive) | 32.6 µM (inactive) | 24.2 µM (inactive) | 43.2 µM (inactive) | 68.2 µM (inactive) | 58.6 µM (inactive) | 78.2 µM (inactive) | 18.5 µM (inactive) | 40.6 µM (inactive) | 38.5 µM (inactive) | 22 µM (inactive)
C=CCO/N=C(\OC(=O)c1ccc([N+](=O)[O-])cc1)c1ccccc1 | > 100 µM (inactive) | – | > 100 | > 100 µM (inactive) | > 100 µM (inactive) | – | > 100 µM (inactive) | > 100 µM (inactive) | – | > 100 µM (inactive) | > 100 µM (inactive) | > 100 µM (inactive) | > 100 µM (inactive) | > 100 µM (inactive) | > 100 µM (inactive) | > 100 µM (inactive) | > 100 µM (inactive)
CCOC(=O)c1ccc(N2C(=O)Cc3ccccc3C2=O)cc1 | – | > 100 µM (inactive) | > 100 | > 100 µM (inactive) | – | > 100 µM (inactive) | – | > 100 µM (inactive) | > 100 µM (inactive) | > 100 µM (inactive) | > 100 µM (inactive) | > 100 µM (inactive) | > 100 µM (inactive) | > 100 µM (inactive) | > 100 µM (inactive) | > 100 µM (inactive) | > 100 µM (inactive)
CN(C)c1ccc(/C=C/C=C\c2cc(/C=C/C=C/c3ccc(N(C)C)cc3)[s+]c3ccccc23)cc1.[O-][Cl+3]([O-])([O-])[O-] | > 100 µM (inactive) | 78.5 µM (inactive) | 80.7 | – | 14.5 µM (inactive) | > 100 µM (inactive) | > 100 µM (inactive) | 57.9 µM (inactive) | 13.1 µM (inactive) | > 100 µM (inactive) | 45.2 µM (inactive) | > 100 µM (inactive) | > 100 µM (inactive) | > 100 µM (inactive) | – | > 100 µM (inactive) | 55.3 µM (inactive)
NC(CCC(=O)NC(CSSCCCCS(=O)O)C(=O)NCC(=O)O)C(=O)O (stereo unspecified) | > 100 µM (inactive) | > 100 µM (inactive) | > 100 | > 100 µM (inactive) | > 100 µM (inactive) | 29.5 µM (inactive) | > 100 µM (inactive) | > 100 µM (inactive) | > 100 µM (inactive) | > 100 µM (inactive) | > 100 µM (inactive) | > 100 µM (inactive) | > 100 µM (inactive) | > 100 µM (inactive) | > 100 µM (inactive) | > 100 µM (inactive) | –
COc1ccccc1NC(=O)C1=C(C)NC(C)=C(C(=O)Nc2ccccc2OC)C1c1ccccc1OC | > 100 µM (inactive) | 38.9 µM (inactive) | > 100 | > 100 µM (inactive) | > 100 µM (inactive) | 54.5 µM (inactive) | 97.3 µM (inactive) | > 100 µM (inactive) | – | > 100 µM (inactive) | > 100 µM (inactive) | > 100 µM (inactive) | > 100 µM (inactive) | > 100 µM (inactive) | > 100 µM (inactive) | > 100 µM (inactive) | 75.9 µM (inactive)
CCCCCCCCC/C=C1\CCC(CN(C)C)C1=O (stereo unspecified) | 2.48 µM (inactive) | 1.8 µM (inactive) | 2.22 | 2.63 µM (inactive) | 1.84 µM (inactive) | 2.62 µM (inactive) | 3.43 µM (inactive) | 1.69 µM (inactive) | – | 3.22 µM (inactive) | 2.72 µM (inactive) | 5.87 µM (inactive) | 2.18 µM (inactive) | 2.02 µM (inactive) | 3.5 µM (inactive) | 2.47 µM (inactive) | 0.0619 µM (active)
CC(=O)C(CN(Cc1ccccc1)Cc1ccccc1)C(c1ccccc1)c1c(O)c2ccccc2oc1=O (stereo unspecified) | > 100 µM (inactive) | > 100 µM (inactive) | > 100 | > 100 µM (inactive) | > 100 µM (inactive) | – | > 100 µM (inactive) | > 100 µM (inactive) | > 100 µM (inactive) | > 100 µM (inactive) | > 100 µM (inactive) | > 100 µM (inactive) | > 100 µM (inactive) | > 100 µM (inactive) | – | > 100 µM (inactive) | > 100 µM (inactive)
COc1ccc2ccccc2c1C1=NC(C)(C)CO1 | – | > 100 µM (inactive) | > 100 | > 100 µM (inactive) | > 100 µM (inactive) | > 100 µM (inactive) | > 100 µM (inactive) | > 100 µM (inactive) | > 100 µM (inactive) | > 100 µM (inactive) | > 100 µM (inactive) | > 100 µM (inactive) | > 100 µM (inactive) | > 100 µM (inactive) | – | > 100 µM (inactive) | > 100 µM (inactive)
Cc1ccc(-c2nc3ccccc3c(=O)n2NC2OC(CO)C(O)C(O)C2O)cc1 (stereo unspecified) | > 100 µM (inactive) | > 100 µM (inactive) | > 100 | > 100 µM (inactive) | > 100 µM (inactive) | > 100 µM (inactive) | > 100 µM (inactive) | > 100 µM (inactive) | – | > 100 µM (inactive) | > 100 µM (inactive) | > 100 µM (inactive) | > 100 µM (inactive) | > 100 µM (inactive) | > 100 µM (inactive) | > 100 µM (inactive) | > 100 µM (inactive)
[N-]=[N+]=Nc1cc(=O)oc2ccccc12 | – | > 100 µM (inactive) | > 100 | > 100 µM (inactive) | > 100 µM (inactive) | > 100 µM (inactive) | > 100 µM (inactive) | > 100 µM (inactive) | > 100 µM (inactive) | > 100 µM (inactive) | > 100 µM (inactive) | – | > 100 µM (inactive) | > 100 µM (inactive) | – | – | > 100 µM (inactive)
COC(=O)C1CCc2c(OC)ccc(OC)c2C1=O (stereo unspecified) | > 100 µM (inactive) | > 100 µM (inactive) | – | > 100 µM (inactive) | > 100 µM (inactive) | > 100 µM (inactive) | > 100 µM (inactive) | > 100 µM (inactive) | – | > 100 µM (inactive) | > 100 µM (inactive) | > 100 µM (inactive) | > 100 µM (inactive) | > 100 µM (inactive) | > 100 µM (inactive) | > 100 µM (inactive) | > 100 µM (inactive)
